How the values were obtained:
[1] = target: DNA gyrase of C. difficile (Clostridioides difficile, UniProt Q18C89+Q18C90); test: biochemical
[2] = Pharmacokinetics in the rat (plasma, oral and intravenous); format: in vivo, male SD rats
Method: OPS-2071 was orally or intravenously administered at 1 mg/kg to male SD rats, and plasma was collected 0.5, 1, 2, 4, 6, 8, 12, 24, 48, and 72 h postdose (oral, n = 3 for each time point) or 0.083, 0.25, 0.5, 1, 2, 4, 6, 8, 12, 24, 48, and 72 h postdose (intravenous, n = 3 for each time point). After solid-phase extraction, the OPS-2071 concentration in plasma was determined by a validated LC-ESI-MS/MS method, and bioavailability was calculated. The mass spectrometer QTRAP 5500 (AB Sciex Pte. Ltd.) and high-performance liquid chromatography Prominence UFLCXR system (Shimadzu Corp.) were used. The PK parameters (AUCt) were determined with the same WinNonlin professional software, and the bioavailability was calculated from AUCt,oral and AUCt,intravenous.

[3] = Pharmacokinetics in the hamster (cecal contents); format: in vivo, male Syrian hamsters; settings: male, Syrian, 2 mg/kg oral
Method: OPS-2071 was orally administered at 2 mg/kg to male Syrian hamsters, and the cecal contents were collected 0.5, 1, 2, 4, 8, 24, 48, and 72 h postdose (n = 5 for each time point). After homogenizing with saline and treatment using acetonitrile-formic acid (100:1 [vol/vol]), the OPS-2071 concentration in cecal contents was determined using a validated liquid chromatography-electrospray ionization-tandem mass spectrometry (LC-ESI-MS/MS) method. The mass spectrometer 4000 QTRAP (AB Sciex Pte. Ltd.) and high-performance liquid chromatography Prominence UFLC system (Shimadzu Corp.) were used. The pharmacokinetic (PK) parameters (Cmax) were determined with WinNonlin professional software version 6.3, (Pharsight Corp.).

DNA gyrase of C. difficile, sequence (Q18C90 entry or part of it): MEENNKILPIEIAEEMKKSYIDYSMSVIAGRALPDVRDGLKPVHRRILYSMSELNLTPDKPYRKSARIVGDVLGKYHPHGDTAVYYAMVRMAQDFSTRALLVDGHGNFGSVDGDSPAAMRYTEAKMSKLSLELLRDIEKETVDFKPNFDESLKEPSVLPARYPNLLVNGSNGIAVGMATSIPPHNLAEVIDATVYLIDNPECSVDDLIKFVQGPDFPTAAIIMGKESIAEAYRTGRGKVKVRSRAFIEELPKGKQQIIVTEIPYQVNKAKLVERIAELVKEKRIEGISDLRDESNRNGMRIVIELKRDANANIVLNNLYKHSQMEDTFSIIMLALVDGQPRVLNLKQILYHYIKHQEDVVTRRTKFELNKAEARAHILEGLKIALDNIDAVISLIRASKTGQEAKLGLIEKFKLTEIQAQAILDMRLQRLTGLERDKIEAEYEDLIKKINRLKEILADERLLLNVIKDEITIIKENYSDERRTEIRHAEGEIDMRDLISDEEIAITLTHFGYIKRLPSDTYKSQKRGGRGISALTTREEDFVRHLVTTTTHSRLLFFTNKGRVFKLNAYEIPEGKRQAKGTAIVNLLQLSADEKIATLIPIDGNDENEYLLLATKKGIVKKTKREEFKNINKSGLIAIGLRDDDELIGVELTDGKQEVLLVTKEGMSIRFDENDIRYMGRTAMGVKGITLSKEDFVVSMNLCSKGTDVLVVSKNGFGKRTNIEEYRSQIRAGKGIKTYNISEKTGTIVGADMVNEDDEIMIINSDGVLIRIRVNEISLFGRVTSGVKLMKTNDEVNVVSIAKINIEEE
DNA gyrase of C. difficile, sequence (Q18C89 entry or part of it): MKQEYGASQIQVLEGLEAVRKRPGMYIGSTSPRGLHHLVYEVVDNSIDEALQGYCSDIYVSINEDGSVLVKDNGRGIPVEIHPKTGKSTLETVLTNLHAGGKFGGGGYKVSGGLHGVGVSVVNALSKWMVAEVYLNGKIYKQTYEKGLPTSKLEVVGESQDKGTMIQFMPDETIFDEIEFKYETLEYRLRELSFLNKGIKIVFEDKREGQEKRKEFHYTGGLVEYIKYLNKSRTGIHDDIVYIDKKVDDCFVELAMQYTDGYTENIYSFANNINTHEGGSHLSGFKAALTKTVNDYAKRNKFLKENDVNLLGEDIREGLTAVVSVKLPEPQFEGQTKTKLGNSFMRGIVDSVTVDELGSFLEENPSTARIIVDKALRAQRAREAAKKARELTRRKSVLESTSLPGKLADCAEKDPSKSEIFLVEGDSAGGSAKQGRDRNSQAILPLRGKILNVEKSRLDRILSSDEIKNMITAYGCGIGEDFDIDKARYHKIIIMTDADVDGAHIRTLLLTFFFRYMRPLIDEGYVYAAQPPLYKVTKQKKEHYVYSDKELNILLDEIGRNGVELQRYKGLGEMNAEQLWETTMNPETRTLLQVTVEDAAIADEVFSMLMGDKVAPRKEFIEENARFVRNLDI

With `Cc1c(-c2cnc(N)c(C#N)c2)c(F)cc2c(=O)c(C(=O)O)cn(C3CC3)c12` [OPS-2071, 7-(6-amino-5-cyanopyridin-3-yl)-1-cyclopropyl-6-fluoro-8-methyl-4-oxo-1,4-dihydroquinoline-3-carboxylic acid] the IC50 [1] was 608 nM, the “plasma concentrations at 48 and 72 h after administration” value ([2]; 1 mg/kg oral or intravenous) was under 0.5 ng/mL and the bioavailability ([2]; male, SD, rat, plasma, 1 mg/kg, from AUCt oral and intravenous) was 2.9%. The AUC(0-t) ([2]; male, SD, rat, intravenous, 1 mg/kg, plasma) was 672 ng·h/mL, the AUC(0-t) ([2]; male, SD, rat, oral, 1 mg/kg, plasma) was 19.5 ng·h/mL and the concentration at 24 h ([3]; 24 h, read-out: concentration in the cecal contents at 24 h postdose) was 1840 ng/g. For the same compound, the Cmax ([3]; reached at 4 h postdose, read-out: maximum concentration (Cmax) in the cecal contents) was 43000 ng/g.

From article PMC8097418, “In Vitro and In Vivo Antibacterial Activities of a Novel Quinolone Compound, OPS-2071, against Clostridioides difficile” (Antimicrobial Agents and Chemotherapy, 2021)
